Measured values: paper PMC6620326, “Structural characterization of life-extending Caenorhabditis elegans Lipid Binding Protein 8” (Scientific Reports, 2019)

Tests used:
LBP-8 [1] = target: T1, LBP-8 (Caenorhabditis elegans, UniProt O02324); experiment: […],8-ANS fluorescence displacement; type: binding; conditions: PBS pH 8.0, 37 °C, 250 nM protein, 800 nM 1,8-ANS, 1% ethanol; refolded delipidated protein; competitive with 1,8-ANS
T1 construct: full-length residues 1-137, pMCSG7 His6-TEV, E. coli BL21(DE3); His tag cleaved by TEV
T1 sequence (O02324 1-137): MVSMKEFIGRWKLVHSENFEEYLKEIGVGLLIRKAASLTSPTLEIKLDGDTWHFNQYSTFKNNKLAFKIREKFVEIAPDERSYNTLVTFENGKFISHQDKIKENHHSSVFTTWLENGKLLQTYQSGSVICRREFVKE

LBP-8 [2] = target: T1, LBP-8; experiment: differential scanning fluorimetry, SYPRO orange; type: binding; conditions: 20 µM ligand, 7 µM refolded protein, 1% ethanol; destabilising shift

SMILES | Ki (LBP-8 [1]) | decrease in Tm vs apo (LBP-8 [2])
CCCCCCCC/C=C\CCCCCCCC(=O)NCCO [OEA, oleoylethanolamide] | oleic acid and OEA, and both had very similar Ki’s | –
CCCCCCCC/C=C\CCCCCCCC(=O)O [OA, oleic acid] | oleic acid and OEA, and both had very similar Ki’s | ~ 4 °C
